Marks after values point to notes of the source that are not given here.

One compound from patent publication US20190116833A1, “FEED ADDITIVE COMPOSITIONS” (priority 2017, published 2019) can be followed below.

The nature of series [1]: Growth performance of early weaned pigs, SMBS titration (Example 3). Format: in vivo. Conditions: in words. The text has this: A total of 1,296 weanling pigs were used to determine the impact of […] on growth performance in 19 to 20 day old pigs. The ratio of same-sow source pens was equalized within treatments. The number of barrows and gilts was balanced within the pen (either 13 […] or 14 […] per pen). Upon arrival weanling pigs were sorted to pens (48 pens with 27 pigs per pen) and weighed as a complete pen of pigs. Pens within block were randomly assigned to one of 4 dietary treatments (1 control and 3 experimental diets; Table 6) in a randomized complete block design. Diets containing testing products were made by mixing the testing products into the basal diet (Table 7).
Pig weights were taken at placement and at the end of each diet phase (day 9 and 23). Feed weights were collected daily and the data was used to calculate ADG, ADFI and F/G for both diet phases and for the entire experimental period (23 days). Blood samples were on day 0 and 23 of the study from one barrow in each pen. Each pen was selected at the beginning of the study, identified with an ear tag, and sampled again at the end of the study. 8.5 mL blood was collected and allowed to clot on ice for at least 1.5 hr and centrifuged at 2,000×g for 13 min (4° C.). Fecal scores for each pen were collected on d 3, 5, 7, and 10 using the following scale: 0=none; 1=mild; 2=substantial; 3=severe (Citation 1: Marquardt et al., 1999).

Series [2] can be described thus: Post-weaning pig growth performance, SMBS vs SMBS + formulated yeast, 2-phase feeding (Example 7). The series is classed as in vivo. The text has this:
A total of 972 pigs were used to determine the effect of sodium metabisulfite (SMBS) or SMBS plus formulated yeast on weanling pig growth performance. Upon arrival pigs were sorted to pens with 27 pigs per pen. Pigs were weighed on pen basis. Pens within block were randomly assigned to one of 3 dietary treatments (1 control and 2 experimental diets; Table 17) in a randomized complete block design. This will result in 12 pens for each treatment for evaluation of growth performance, fecal scores, and health status.
This experiment was conducted for approximately 22 days in a 2-phase feeding program (Table 18) immediately after weaning. Feed was provided through the FeedLogic® system allowing collection of feed intake data by pen.

As for `O=S([O-])S(=O)(=O)[O-].[Na+].[Na+]` [SMBS, sodium metabisulfite], the “ADG and F/G” value in series [1] (increasing levels, both phases of the study) is recorded as “linear (P<0.05) improvements”. In addition, in series [1] (titrating from 0 to 10 lb/ton), the ADG result was “Linear increase” and the F/G result is on record as “Linear decrease”. Besides, in series [2] (Phase 1 + 2, 22 days), the ADFI is 0.78^cd lb/day; the ADG is recorded as 0.54 lb/day; the “ADG, change versus Control” value is given as “(+10.2%)^b”; the “F:G” value turned out to be 1.45. Besides, in series [2] (Phase 1 + 2, 22 days), the “F:G, change versus Control” value was “(−6.5%)^b”; the Mortality worked out at 0.6%; the Total removal worked out at 2.2%. Also, in series [2] (Phase 1, 8 days), the ADFI amounted to 0.46 lb/day, the ADG was 0.16^d lb/day and the “G:F” value is listed as 0.35^d. Further, in series [2] (Phase 2, 14 days), the ADFI is 0.96^ab lb/day, the ADG is recorded as 0.76^b lb/day and the “F:G” value is recorded as 1.27^b. Further, in series [2] (end of Phase 1, 8 days), the “BW end of Phase 1” value is 13.4 lb. Moreover, the “BW end of Phase 2” value in series [2] (end of Phase 2, 14 days) is reported as 24.1^b lb. Also, in series [2] (start of experiment (baseline)), the “Start BW” value was determined as 11.8 lb.
